The NIST ThermoML archive (doi:10.1016/j.jct.2004.12.008)
Numbers after ± are expanded uncertainties.

Assay: xn = mol fraction of the nth substance listed
Conditions: 101 kPa, Liquid

O=[N+]([O-])c1ccccc1 [nitrobenzene] + Cc1ccccc1
Conditions | mass density [kg/m3]
293.15 K, x2 = 0 | 1202.95 ± 2.3
293.15 K, x2 = 0.0629 | 1181.81 ± 2.1
293.15 K, x2 = 0.1476 | 1153.37 ± 1.9
293.15 K, x2 = 0.2138 | 1131.14 ± 1.8
293.15 K, x2 = 0.2787 | 1109.35 ± 1.7
293.15 K, x2 = 0.3587 | 1082.5 ± 1.5
293.15 K, x2 = 0.4142 | 1063.89 ± 1.4
293.15 K, x2 = 0.4831 | 1040.77 ± 1.3
293.15 K, x2 = 0.5232 | 1027.31 ± 1.2
293.15 K, x2 = 0.5771 | 1009.22 ± 1.1
293.15 K, x2 = 0.6321 | 990.75 ± 1.2
293.15 K, x2 = 0.6832 | 973.59 ± 1.4
293.15 K, x2 = 0.7234 | 960.08 ± 1.5
293.15 K, x2 = 0.8032 | 933.21 ± 1.8
293.15 K, x2 = 0.8562 | 915.34 ± 2
293.15 K, x2 = 0.9213 | 893.37 ± 2.2
303.15 K, x2 = 0 | 1193.56 ± 2.2
303.15 K, x2 = 0.0567 | 1174.37 ± 2.1
303.15 K, x2 = 0.1332 | 1148.52 ± 1.9
303.15 K, x2 = 0.185 | 1131.03 ± 1.8
303.15 K, x2 = 0.2304 | 1115.73 ± 1.7
303.15 K, x2 = 0.2798 | 1099.1 ± 1.6
303.15 K, x2 = 0.3674 | 1069.64 ± 1.4
303.15 K, x2 = 0.4026 | 1057.82 ± 1.4
303.15 K, x2 = 0.4656 | 1036.69 ± 1.2
303.15 K, x2 = 0.5072 | 1022.73 ± 1.2
303.15 K, x2 = 0.5782 | 998.94 ± 1.1
303.15 K, x2 = 0.6576 | 972.35 ± 1.3
303.15 K, x2 = 0.7235 | 950.27 ± 1.6
303.15 K, x2 = 0.7965 | 925.82 ± 1.8
303.15 K, x2 = 0.8643 | 903.09 ± 2.1
303.15 K, x2 = 0.9354 | 879.23 ± 2.3
313.15 K, x2 = 0 | 1183.37 ± 2.1
313.15 K, x2 = 0.0674 | 1160.46 ± 2
313.15 K, x2 = 0.1534 | 1131.33 ± 1.8
313.15 K, x2 = 0.1978 | 1116.33 ± 1.7
313.15 K, x2 = 0.2576 | 1096.15 ± 1.6
313.15 K, x2 = 0.3254 | 1073.34 ± 1.4
313.15 K, x2 = 0.3789 | 1055.38 ± 1.3
313.15 K, x2 = 0.4577 | 1028.98 ± 1.2
313.15 K, x2 = 0.5067 | 1012.59 ± 1.1
313.15 K, x2 = 0.5564 | 996 ± 1.1
313.15 K, x2 = 0.6134 | 976.98 ± 1.2
313.15 K, x2 = 0.674 | 956.78 ± 1.5
313.15 K, x2 = 0.7435 | 933.64 ± 1.7
313.15 K, x2 = 0.8134 | 910.37 ± 2
313.15 K, x2 = 0.865 | 893.2 ± 2.1
313.15 K, x2 = 0.9134 | 877.09 ± 2.3
323.15 K, x2 = 0 | 1172.38 ± 2
323.15 K, x2 = 0.0479 | 1156.07 ± 1.9
323.15 K, x2 = 0.1289 | 1128.59 ± 1.7
323.15 K, x2 = 0.1874 | 1108.81 ± 1.6
323.15 K, x2 = 0.2671 | 1081.99 ± 1.4
323.15 K, x2 = 0.3371 | 1058.51 ± 1.3
323.15 K, x2 = 0.3961 | 1038.77 ± 1.2
323.15 K, x2 = 0.4628 | 1016.54 ± 1.1
323.15 K, x2 = 0.5342 | 992.79 ± 1.1
323.15 K, x2 = 0.6056 | 969.11 ± 1.3
323.15 K, x2 = 0.6854 | 942.7 ± 1.6
323.15 K, x2 = 0.7245 | 929.78 ± 1.7
323.15 K, x2 = 0.8056 | 903.01 ± 2
323.15 K, x2 = 0.8543 | 886.94 ± 2.2
323.15 K, x2 = 0.8965 | 873.03 ± 2.3
323.15 K, x2 = 0.9423 | 857.93 ± 2.5
333.15 K, x2 = 0 | 1160.59 ± 1.9
333.15 K, x2 = 0.0575 | 1141.04 ± 1.8
333.15 K, x2 = 0.1435 | 1111.97 ± 1.6
333.15 K, x2 = 0.2345 | 1081.38 ± 1.4
333.15 K, x2 = 0.2978 | 1060.21 ± 1.3
333.15 K, x2 = 0.3534 | 1041.68 ± 1.2
333.15 K, x2 = 0.4213 | 1019.15 ± 1.1
333.15 K, x2 = 0.4896 | 996.55 ± 0.98
333.15 K, x2 = 0.5634 | 972.23 ± 1.2
333.15 K, x2 = 0.6233 | 952.54 ± 1.4
333.15 K, x2 = 0.6856 | 932.12 ± 1.6
333.15 K, x2 = 0.7435 | 913.17 ± 1.9
333.15 K, x2 = 0.7947 | 896.44 ± 2
333.15 K, x2 = 0.8634 | 874.02 ± 2.3
333.15 K, x2 = 0.9067 | 859.9 ± 2.4
333.15 K, x2 = 0.9424 | 848.26 ± 2.5
343.15 K, x2 = 0 | 1148 ± 1.9
343.15 K, x2 = 0.0523 | 1130.3 ± 1.7
343.15 K, x2 = 0.1389 | 1101.17 ± 1.5
343.15 K, x2 = 0.1924 | 1083.27 ± 1.4
343.15 K, x2 = 0.2684 | 1057.97 ± 1.2
343.15 K, x2 = 0.3289 | 1037.94 ± 1.1
343.15 K, x2 = 0.3889 | 1018.15 ± 1
343.15 K, x2 = 0.4521 | 997.4 ± 0.94
343.15 K, x2 = 0.5123 | 977.7 ± 1.1
343.15 K, x2 = 0.5931 | 951.38 ± 1.4
343.15 K, x2 = 0.6532 | 931.86 ± 1.6
343.15 K, x2 = 0.7234 | 909.14 ± 1.9
343.15 K, x2 = 0.7923 | 886.89 ± 2.1
343.15 K, x2 = 0.8534 | 867.19 ± 2.3
343.15 K, x2 = 0.8811 | 858.27 ± 2.4
343.15 K, x2 = 0.9421 | 838.64 ± 2.6
353.15 K, x2 = 0 | 1134.61 ± 1.8
353.15 K, x2 = 0.0442 | 1119.76 ± 1.6
353.15 K, x2 = 0.1247 | 1092.87 ± 1.4
353.15 K, x2 = 0.1842 | 1073.14 ± 1.3
353.15 K, x2 = 0.2479 | 1052.11 ± 1.2
353.15 K, x2 = 0.2943 | 1036.87 ± 1.1
353.15 K, x2 = 0.3479 | 1019.33 ± 0.99
353.15 K, x2 = 0.4109 | 998.83 ± 0.89
353.15 K, x2 = 0.4671 | 980.61 ± 1.1
353.15 K, x2 = 0.5239 | 962.27 ± 1.3
353.15 K, x2 = 0.5791 | 944.5 ± 1.4
353.15 K, x2 = 0.6321 | 927.5 ± 1.6
353.15 K, x2 = 0.7913 | 876.69 ± 2.2
353.15 K, x2 = 0.8423 | 860.48 ± 2.3
353.15 K, x2 = 0.8742 | 850.36 ± 2.4
353.15 K, x2 = 0.9311 | 832.32 ± 2.6
